In ChEMBL document CHEMBL3769377, “A synthesis, in silico, in vitro and in vivo study of thieno[2,3-b]pyridine anticancer analogues” (Medchemcomm, 2015):
The source made the active and inactive calls. The calls are words filed in the database; no cut-off is given here.

Columns and labels:
[1] = biological target: SRSF protein kinase 3 (Homo sapiens) (UniProt Q9UPE1); test: Inhibition of human recombinant SRPK3 assessed as residual activity at 10 uM after 1 hr by qPCR analysis relative to control
[2] = biological target: Atypical kinase COQ8A, mitochondrial (Homo sapiens) (UniProt Q8NI60); test: Inhibition of human recombinant ADCK3 assessed as residual activity at 10 uM after 1 hr by qPCR analysis relative to control
[3] = biological target: Fibroblast growth factor receptor 3 (Homo sapiens) (UniProt P22607); test: Inhibition of human recombinant FGFR3 assessed as residual activity at 10 uM after 1 hr by qPCR analysis relative to control
Chain of Fibroblast growth factor receptor 3 (Homo sapiens) (P22607 23-806 limits assumed): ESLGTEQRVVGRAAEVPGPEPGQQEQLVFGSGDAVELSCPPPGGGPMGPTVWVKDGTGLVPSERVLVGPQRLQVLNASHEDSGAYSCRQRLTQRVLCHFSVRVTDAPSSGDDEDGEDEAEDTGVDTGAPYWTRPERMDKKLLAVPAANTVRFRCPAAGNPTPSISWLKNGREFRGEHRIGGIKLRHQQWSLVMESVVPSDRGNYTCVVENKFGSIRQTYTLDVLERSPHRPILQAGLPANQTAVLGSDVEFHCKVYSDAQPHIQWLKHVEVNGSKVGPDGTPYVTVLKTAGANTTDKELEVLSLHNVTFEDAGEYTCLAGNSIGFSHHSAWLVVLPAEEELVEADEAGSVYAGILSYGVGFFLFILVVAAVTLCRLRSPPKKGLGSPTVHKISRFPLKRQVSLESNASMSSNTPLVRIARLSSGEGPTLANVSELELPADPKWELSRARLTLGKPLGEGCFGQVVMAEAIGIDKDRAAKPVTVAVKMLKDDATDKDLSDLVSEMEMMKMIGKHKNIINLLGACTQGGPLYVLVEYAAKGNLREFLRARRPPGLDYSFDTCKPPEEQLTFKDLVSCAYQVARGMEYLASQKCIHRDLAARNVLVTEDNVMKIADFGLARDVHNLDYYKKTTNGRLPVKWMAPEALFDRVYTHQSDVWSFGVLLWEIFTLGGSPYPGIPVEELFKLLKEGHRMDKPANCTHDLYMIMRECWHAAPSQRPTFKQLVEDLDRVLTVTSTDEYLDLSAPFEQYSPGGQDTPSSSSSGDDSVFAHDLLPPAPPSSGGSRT

[4] = biological target: cAMP-dependent protein kinase catalytic subunit alpha (Homo sapiens) (UniProt P17612); test: Inhibition of human recombinant PKACalpha assessed as residual activity at 10 uM after 1 hr by qPCR analysis relative to control
[5] = biological target: Tyrosine-protein kinase BTK (Homo sapiens) (UniProt Q06187); test: Inhibition of human recombinant BTK assessed as residual activity at 10 uM after 1 hr by qPCR analysis relative to control
[6] = biological target: MAP kinase-interacting serine/threonine-protein kinase 2 (Homo sapiens) (UniProt Q9HBH9); test: Inhibition of human recombinant MKNK2 assessed as residual activity at 10 uM after 1 hr by qPCR analysis relative to control
[7] = biological target: Dual specificity mitogen-activated protein kinase kinase 1 (Homo sapiens) (UniProt Q02750); test: Inhibition of human recombinant MEK1 assessed as residual activity at 10 uM after 1 hr by qPCR analysis relative to control
[8] = biological target: Serine/threonine-protein kinase DCLK1 (Homo sapiens) (UniProt O15075); test: Inhibition of human recombinant DCAMKL1 assessed as residual activity at 10 uM after 1 hr by qPCR analysis relative to control
[9] = biological target: Cyclin-dependent kinase 7 (Homo sapiens) (UniProt P50613); test: Inhibition of human recombinant CDK7 assessed as residual activity at 10 uM after 1 hr by qPCR analysis relative to control
[10] = biological target: Inhibitor of nuclear factor kappa-B kinase subunit beta (Homo sapiens) (UniProt O14920); test: Inhibition of human recombinant IKKbeta assessed as residual activity at 10 uM after 1 hr by qPCR analysis relative to control
[11] = biological target: Serine/threonine-protein kinase Chk1 (Homo sapiens) (UniProt O14757); test: Inhibition of human recombinant CHEK1 assessed as residual activity at 10 uM after 1 hr by qPCR analysis relative to control
[12] = biological target: Serine/threonine-protein kinase PAK 2 (Homo sapiens) (UniProt Q13177); test: Inhibition of human recombinant PAK2 assessed as residual activity at 10 uM after 1 hr by qPCR analysis relative to control
Chain of Serine/threonine-protein kinase PAK 2 (Homo sapiens) (Q13177 whole entry): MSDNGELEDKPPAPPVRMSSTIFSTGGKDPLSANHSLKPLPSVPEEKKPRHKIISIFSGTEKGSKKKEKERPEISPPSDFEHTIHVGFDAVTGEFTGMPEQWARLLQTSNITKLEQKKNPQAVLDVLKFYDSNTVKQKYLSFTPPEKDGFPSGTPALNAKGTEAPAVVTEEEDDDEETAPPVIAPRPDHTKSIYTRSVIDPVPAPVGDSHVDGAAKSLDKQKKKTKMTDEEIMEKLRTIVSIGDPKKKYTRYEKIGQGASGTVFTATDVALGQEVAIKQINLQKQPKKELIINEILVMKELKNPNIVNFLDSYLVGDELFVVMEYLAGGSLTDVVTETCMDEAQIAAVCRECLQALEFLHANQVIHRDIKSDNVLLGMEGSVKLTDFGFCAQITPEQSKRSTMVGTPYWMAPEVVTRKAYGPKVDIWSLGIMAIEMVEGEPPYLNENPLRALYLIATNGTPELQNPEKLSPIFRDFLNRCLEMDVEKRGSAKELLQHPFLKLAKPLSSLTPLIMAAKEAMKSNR

[13] = biological target: Protein kinase C epsilon type (Homo sapiens) (UniProt Q02156); test: Inhibition of human recombinant PRKCE assessed as residual activity at 10 uM after 1 hr by qPCR analysis relative to control
Chain of Protein kinase C epsilon type (Homo sapiens) (Q02156 whole entry): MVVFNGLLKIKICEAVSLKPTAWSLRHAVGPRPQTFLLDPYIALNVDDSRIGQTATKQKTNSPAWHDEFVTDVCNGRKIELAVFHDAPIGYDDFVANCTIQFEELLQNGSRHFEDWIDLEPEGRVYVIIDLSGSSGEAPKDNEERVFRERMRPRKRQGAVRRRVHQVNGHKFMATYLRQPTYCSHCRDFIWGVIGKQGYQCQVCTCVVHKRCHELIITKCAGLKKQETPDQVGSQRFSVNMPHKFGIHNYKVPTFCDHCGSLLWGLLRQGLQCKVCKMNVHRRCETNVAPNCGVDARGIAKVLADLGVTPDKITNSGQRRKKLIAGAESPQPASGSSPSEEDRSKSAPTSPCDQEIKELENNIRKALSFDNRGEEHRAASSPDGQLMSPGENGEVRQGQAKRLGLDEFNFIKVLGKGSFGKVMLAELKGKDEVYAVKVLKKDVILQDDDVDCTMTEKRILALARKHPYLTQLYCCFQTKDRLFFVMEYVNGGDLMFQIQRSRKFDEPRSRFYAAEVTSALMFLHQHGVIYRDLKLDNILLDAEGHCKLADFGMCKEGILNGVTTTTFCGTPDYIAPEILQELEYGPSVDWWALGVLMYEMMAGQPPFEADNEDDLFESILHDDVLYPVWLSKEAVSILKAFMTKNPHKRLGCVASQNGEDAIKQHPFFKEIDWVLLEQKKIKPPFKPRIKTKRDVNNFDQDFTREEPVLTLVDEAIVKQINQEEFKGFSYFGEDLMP

[14] = tested on: Mast/stem cell growth factor receptor Kit (Homo sapiens), P10721 [D816V]; test: Inhibition of human recombinant KIT D816V mutant assessed as residual activity at 10 uM after 1 hr by qPCR analysis relative to control
Chain of Mast/stem cell growth factor receptor Kit (Homo sapiens), P10721 [D816V] (P10721 whole entry D816V): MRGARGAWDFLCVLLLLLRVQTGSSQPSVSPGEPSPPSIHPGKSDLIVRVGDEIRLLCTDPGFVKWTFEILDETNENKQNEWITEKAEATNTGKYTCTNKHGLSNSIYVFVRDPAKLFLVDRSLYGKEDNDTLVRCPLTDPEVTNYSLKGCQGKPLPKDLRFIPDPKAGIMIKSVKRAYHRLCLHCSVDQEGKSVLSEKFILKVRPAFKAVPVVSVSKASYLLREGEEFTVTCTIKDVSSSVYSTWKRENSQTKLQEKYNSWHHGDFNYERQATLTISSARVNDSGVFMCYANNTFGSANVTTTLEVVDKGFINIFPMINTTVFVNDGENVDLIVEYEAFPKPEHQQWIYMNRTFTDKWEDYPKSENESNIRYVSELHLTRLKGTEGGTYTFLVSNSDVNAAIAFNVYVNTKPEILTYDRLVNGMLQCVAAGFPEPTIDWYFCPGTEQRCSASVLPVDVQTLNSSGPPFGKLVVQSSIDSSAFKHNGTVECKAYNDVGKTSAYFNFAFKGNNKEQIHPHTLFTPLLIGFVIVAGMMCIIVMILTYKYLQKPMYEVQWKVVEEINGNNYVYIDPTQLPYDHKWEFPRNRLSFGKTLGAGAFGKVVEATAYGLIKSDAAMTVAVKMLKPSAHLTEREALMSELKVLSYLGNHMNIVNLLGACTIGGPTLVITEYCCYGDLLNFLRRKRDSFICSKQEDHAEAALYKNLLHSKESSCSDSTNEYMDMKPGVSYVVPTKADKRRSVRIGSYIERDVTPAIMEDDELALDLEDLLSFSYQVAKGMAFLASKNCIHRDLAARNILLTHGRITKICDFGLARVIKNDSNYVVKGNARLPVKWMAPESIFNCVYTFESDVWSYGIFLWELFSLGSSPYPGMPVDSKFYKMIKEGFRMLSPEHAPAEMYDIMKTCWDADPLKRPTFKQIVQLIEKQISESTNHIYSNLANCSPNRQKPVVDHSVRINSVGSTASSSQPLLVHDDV

[15] = biological target: Receptor tyrosine-protein kinase erbB-4 (Homo sapiens) (UniProt Q15303); test: Inhibition of human recombinant ERBB4 assessed as residual activity at 10 uM after 1 hr by qPCR analysis relative to control
[16] = biological target: Dual specificity mitogen-activated protein kinase kinase 2 (Homo sapiens) (UniProt P36507); test: Inhibition of human recombinant MEK2 assessed as residual activity at 10 uM after 1 hr by qPCR analysis relative to control
[17] = biological target: Casein kinase I isoform delta (Homo sapiens) (UniProt P48730); test: Inhibition of human recombinant CSNK1D assessed as residual activity at 10 uM after 1 hr by qPCR analysis relative to control
[18] = biological target: Non-receptor tyrosine-protein kinase TYK2 (Homo sapiens) (UniProt P29597); test: Inhibition of human recombinant TYK2 (JH1 domain-catalytic) assessed as residual activity at 10 uM after 1 hr by qPCR analysis relative to control
Chain of Non-receptor tyrosine-protein kinase TYK2 (Homo sapiens) (P29597 whole entry, the tested form may be a part): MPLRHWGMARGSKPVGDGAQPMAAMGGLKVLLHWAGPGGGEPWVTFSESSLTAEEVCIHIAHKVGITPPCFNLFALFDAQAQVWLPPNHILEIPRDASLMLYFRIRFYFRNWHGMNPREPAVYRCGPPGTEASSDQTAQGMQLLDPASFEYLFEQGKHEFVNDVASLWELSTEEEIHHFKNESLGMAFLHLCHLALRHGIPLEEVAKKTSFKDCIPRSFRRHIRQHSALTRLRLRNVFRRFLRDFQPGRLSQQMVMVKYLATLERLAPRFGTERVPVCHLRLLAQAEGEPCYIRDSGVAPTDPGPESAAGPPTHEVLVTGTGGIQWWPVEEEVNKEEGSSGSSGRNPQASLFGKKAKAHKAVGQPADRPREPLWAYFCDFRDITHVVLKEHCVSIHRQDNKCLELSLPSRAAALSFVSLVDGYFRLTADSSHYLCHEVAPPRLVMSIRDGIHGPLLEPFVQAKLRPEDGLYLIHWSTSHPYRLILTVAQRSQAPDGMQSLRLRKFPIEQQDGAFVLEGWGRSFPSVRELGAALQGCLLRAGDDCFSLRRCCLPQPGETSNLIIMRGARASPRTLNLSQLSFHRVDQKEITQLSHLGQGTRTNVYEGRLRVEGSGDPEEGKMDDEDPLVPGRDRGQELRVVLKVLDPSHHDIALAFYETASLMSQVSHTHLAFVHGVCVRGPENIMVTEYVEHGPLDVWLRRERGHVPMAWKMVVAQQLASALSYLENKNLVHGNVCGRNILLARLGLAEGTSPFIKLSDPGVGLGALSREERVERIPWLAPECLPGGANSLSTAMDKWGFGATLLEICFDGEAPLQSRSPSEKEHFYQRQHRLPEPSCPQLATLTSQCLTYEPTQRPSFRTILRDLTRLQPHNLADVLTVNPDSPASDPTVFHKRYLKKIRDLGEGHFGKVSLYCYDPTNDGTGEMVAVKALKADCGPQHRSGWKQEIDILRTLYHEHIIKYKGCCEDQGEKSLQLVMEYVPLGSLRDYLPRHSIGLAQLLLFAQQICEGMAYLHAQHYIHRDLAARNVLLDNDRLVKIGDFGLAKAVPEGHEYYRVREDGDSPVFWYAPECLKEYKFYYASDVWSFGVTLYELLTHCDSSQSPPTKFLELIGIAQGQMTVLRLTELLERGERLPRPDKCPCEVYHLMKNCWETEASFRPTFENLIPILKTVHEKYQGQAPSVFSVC

[19] = biological target: Inhibitor of nuclear factor kappa-B kinase subunit alpha (Homo sapiens) (UniProt O15111); test: Inhibition of human recombinant IKKalpha assessed as residual activity at 10 uM after 1 hr by qPCR analysis relative to control
[20] = biological target: Serine/threonine-protein kinase PLK4 (Homo sapiens) (UniProt O00444); test: Inhibition of human recombinant PLK4 assessed as residual activity at 10 uM after 1 hr by qPCR analysis relative to control
[21] = biological target: Macrophage colony-stimulating factor 1 receptor (Homo sapiens) (UniProt P07333); test: Inhibition of human recombinant CSF1R assessed as residual activity at 10 uM after 1 hr by qPCR analysis relative to control
[22] = biological target: Activin receptor type-1B (Homo sapiens) (UniProt P36896); test: Inhibition of human recombinant ACVR1B assessed as residual activity at 10 uM after 1 hr by qPCR analysis relative to control
[23] = biological target: Serine/threonine-protein kinase pim-2 (Homo sapiens) (UniProt Q9P1W9); test: Inhibition of human recombinant PIM2 assessed as residual activity at 10 uM after 1 hr by qPCR analysis relative to control
[24] = tested on: Mast/stem cell growth factor receptor Kit (Homo sapiens), P10721 [V559D,T670I]; test: Inhibition of human recombinant KIT V559D/T670I double mutant assessed as residual activity at 10 uM after 1 hr by qPCR analysis relative to control
Chain of Mast/stem cell growth factor receptor Kit (Homo sapiens), P10721 [V559D,T670I] (P10721 whole entry V559D/T670I): as the sequence (P10721 whole entry D816V) above, with V559D, T670I, V816D counted along it

[25] = biological target: RAC-beta serine/threonine-protein kinase (Homo sapiens) (UniProt P31751); test: Inhibition of human recombinant AKT2 assessed as residual activity at 10 uM after 1 hr by qPCR analysis relative to control
786-0 = test: Antitumor activity against human 786-0 cells xenografted in athymic nude/beige mouse assessed as reduction in tumor mass at 0.16 mg/kg, ip qd after 24 days; format: functional, organism-based
[26] = biological target: Mitogen-activated protein kinase kinase kinase 4 (Homo sapiens) (UniProt Q9Y6R4); test: Inhibition of human recombinant MAP3K4 assessed as residual activity at 10 uM after 1 hr by qPCR analysis relative to control
[27] = biological target: Fibroblast growth factor receptor 2 (Homo sapiens) (UniProt P21802); test: Inhibition of human recombinant FGFR2 assessed as residual activity at 10 uM after 1 hr by qPCR analysis relative to control
[28] = biological target: Glycogen synthase kinase-3 beta (Homo sapiens) (UniProt P49841); test: Inhibition of human recombinant GSK3B assessed as residual activity at 10 uM after 1 hr by qPCR analysis relative to control
[29] = biological target: Tyrosine-protein kinase ZAP-70 (Homo sapiens) (UniProt P43403); test: Inhibition of human recombinant ZAP70 assessed as residual activity at 10 uM after 1 hr by qPCR analysis relative to control
Chain of Tyrosine-protein kinase ZAP-70 (Homo sapiens) (P43403 whole entry): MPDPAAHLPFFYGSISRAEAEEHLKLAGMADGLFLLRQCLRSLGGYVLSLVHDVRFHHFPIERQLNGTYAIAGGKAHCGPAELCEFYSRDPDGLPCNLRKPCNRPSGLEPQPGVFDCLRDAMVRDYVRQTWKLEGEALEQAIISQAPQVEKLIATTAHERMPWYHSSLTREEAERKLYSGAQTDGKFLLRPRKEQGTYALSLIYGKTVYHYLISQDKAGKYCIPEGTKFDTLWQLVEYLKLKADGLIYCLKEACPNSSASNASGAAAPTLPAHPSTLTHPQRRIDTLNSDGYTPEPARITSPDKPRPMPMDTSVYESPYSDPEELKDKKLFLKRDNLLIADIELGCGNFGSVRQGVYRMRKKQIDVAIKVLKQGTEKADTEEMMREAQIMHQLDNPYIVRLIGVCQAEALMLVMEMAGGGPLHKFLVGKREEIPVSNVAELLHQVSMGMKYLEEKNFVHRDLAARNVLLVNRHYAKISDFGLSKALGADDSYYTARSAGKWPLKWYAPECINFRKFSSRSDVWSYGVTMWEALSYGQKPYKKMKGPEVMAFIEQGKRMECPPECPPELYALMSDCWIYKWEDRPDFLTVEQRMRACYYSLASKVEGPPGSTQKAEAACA

**Q.** What does the source list for `Cc1c(Cl)cccc1NC(=O)c1sc2nc3c(cc2c1N)C(=O)CC3`?
**A.** Activity [1]: 100%; Activity [2]: 96%; Activity [3]: 100%; Activity [4]: 94%; Activity [5]: 100%; Activity [6]: 91%; Activity [7]: 100%; Activity [8]: 100%; Activity [9]: 99%; Activity [10]: 100%; Activity [11]: 94%; Activity [12]: 95%; Activity [13]: 100%; Activity [14]: 93%; Activity [15]: 100%; Activity [16]: 98%; Activity [17]: 100%; Activity [18]: 94%; Activity [19]: 100%; Activity [20]: 100%; Activity [21]: 100%; Activity [22]: 100%; Activity [23]: 80%; Activity [24]: 99%; Activity [25]: 72%; Activity (786-0): Active; Activity [26]: 96%; Activity [27]: 100%; Activity [28]: 92%; Activity [29]: 95%
